Measurements as given in the NIST ThermoML archive (doi:10.1016/j.fluid.2013.03.008).

Conditions: Liquid, Closed cell (Static) method

CCCCCCCCCCCCCCCC(=O)OCC [ethyl hexadecanoate]
Conditions | vapor or sublimation pressure [kPa]
412.63 K | 0.1
419.36 K | 0.15
425.07 K | 0.2
433.31 K | 0.3
438.71 K | 0.4
442.68 K | 0.5
448.35 K | 0.65
452.99 K | 0.8
457.98 K | 1
462.64 K | 1.2
468.07 K | 1.5

CCCCCCCCCCCCCC(=O)OCC [ethyl tetradecanoate]
Conditions | vapor or sublimation pressure [kPa]
392.17 K | 0.1
398.52 K | 0.15
404.27 K | 0.2
410.95 K | 0.3
416.1 K | 0.4
419.65 K | 0.5
425.69 K | 0.65
430.55 K | 0.8
434.91 K | 1
439.1 K | 1.2
443.82 K | 1.5
